Data from patent US11053204B2, “Pyrimidinyloxy benzene derivatives as herbicides” (FMC Corporation, priority 2015, dated 2021).

Assays:
Format in all cases: in vivo
[1] = system: sedge, umbrella (small-flower umbrella sedge, Cyperus difformis); assay: Test B flooded paddy test, plant response rating; conditions: 250 g ai/ha; Flood; scale of 0 to 100 where 0 is no effect and 100 is complete control; 13 to 15 days
Method in brief: (§1)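 Under a constant 3 cm flood, test compounds went directly into the paddy water. Following 13 to 15 days of greenhouse growth, treated species and controls were compared by eye.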

[2] = system: ducksalad (Heteranthera limosa); assay: Test B flooded paddy test, plant response rating; conditions: 250 g ai/ha; Flood; scale of 0 to 100 where 0 is no effect and 100 is complete control; 13 to 15 days
Method in brief: as §1

rice (Oryza sativa) = assay: Test B flooded paddy test, plant response rating; conditions: 250 g ai/ha; Flood; scale of 0 to 100 where 0 is no effect and 100 is complete control; 13 to 15 days
Method in brief: as §1

[3] = system: barnyardgrass (Echinochloa crus-galli); assay: Test B flooded paddy test, plant response rating; conditions: 250 g ai/ha; Flood; scale of 0 to 100 where 0 is no effect and 100 is complete control; 13 to 15 days
Method in brief: as §1

[4] = system: morningglory (Ipomoea coccinea); assay: Test C postemergence, plant response rating; conditions: for Morningglory plant response rating: scale 0 to 100 (0 no effect, 100 complete control)
Method in brief: (§2)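 Both timings shared one formulation, a non-phytotoxic solvent mixture with surfactant, and a greenhouse period of 13 to 15 d. Preemergence used seeded loam/sand or silt loam soil, postemergence used 2 to 18 cm plants; visual ratings ran from 0 (no effect) to 100 (complete control).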

[5] = system: waterhemp (common waterhemp, Amaranthus rudis); assay: Test C postemergence, plant response rating
Method in brief: as §2

[6] = system: ragweed (common ragweed, Ambrosia elatior); assay: Test C postemergence, plant response rating; conditions: for Ragweed plant response rating: scale 0 to 100 (0 no effect, 100 complete control)
Method in brief: as §2

[7] = system: oilseed rape (Brassica napus); assay: Test C postemergence, plant response rating; conditions: for Oilseed Rape plant response rating: scale 0 to 100 (0 no effect, 100 complete control)
Method in brief: as §2

kochia (Kochia scoparia) [8] = assay: Test C postemergence, plant response rating; conditions: for Kochia plant response rating: scale 0 to 100 (0 no effect, 100 complete control)
Method in brief: as §2

[9] = system: barnyardgrass (Echinochloa crus-galli); assay: Test C postemergence, plant response rating; conditions: for Plant response rating, Barnyardgrass: scale 0 to 100; for Barnyardgrass plant response rating: scale 0 to 100 (0 no effect, 100 complete control)
Method in brief: as §2

[10] = system: velvetleaf (Abutilon theophrasti); assay: Test C postemergence, plant response rating
Method in brief: as §2

[11] = system: ragweed (common ragweed, Ambrosia elatior); assay: Test A postemergence, visual injury rating; conditions: 0 to 100 scale, 0 is no effect, 100 is complete control, approximately 10 days
Method in brief: (§3)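 Scoring: eye-based comparison with untreated controls, 0 for no effect through 100 for complete control, at about day 10. Treatments: directed soil spray preemergence; foliar spray postemergence on 2–10 cm plants at the one- to two-leaf stage. Medium: loam soil with sand.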

[12] = system: wheat (Triticum aestivum); assay: Test A postemergence, visual injury rating; conditions: 0 to 100 scale, 0 is no effect, 100 is complete control, approximately 10 days
Method in brief: as §3

[13] = system: pigweed (Amaranthus retroflexus); assay: Test A postemergence, visual injury rating; conditions: 0 to 100 scale, 0 is no effect, 100 is complete control, approximately 10 days
Method in brief: as §3

kochia (Kochia scoparia) [14] = assay: Test A postemergence, visual injury rating; conditions: 0 to 100 scale, 0 is no effect, 100 is complete control, approximately 10 days
Method in brief: as §3

[15] = system: giant foxtail (Setaria faberii); assay: Test A postemergence, visual injury rating; conditions: 0 is no effect, 100 is complete control
Method in brief: as §3

corn (Zea mays) = assay: Test A postemergence, visual injury rating; conditions: 0 is no effect, 100 is complete control
Method in brief: as §3

[16] = system: Italian ryegrass (Lolium multiflorum); assay: Test A postemergence, visual injury rating; conditions: 0 to 100 scale, 0 is no effect, 100 is complete control, approximately 10 days
Method in brief: as §3

[17] = 125 g ai/ha, scale 0 to 100 (0 no effect, 100 complete control)
[18] = 31 g ai/ha, 0 to 100 scale, approximately 10 days

O=C(CCCCC(F)(F)F)c1c(Br)cccc1Oc1ncc(Cl)cn1 [Compound 82]
Plant response rating, Sedge, Umbrella [1]: 95 | Plant response rating, Ducksalad [2]: 100 | Plant response rating, Rice (rice (Oryza sativa)): 30 | Plant response rating, Barnyardgrass [3]: 35 | Plant response rating, Morningglory ([4]; 16 g ai/ha, scale of 0 to 100): 25 | Plant response rating, Morningglory ([4]; 31 g ai/ha, scale 0 to 100): 40 | Morningglory plant response rating ([4]; 62 g ai/ha): 30 | Morningglory plant response rating ([4]; 125 g ai/ha): 75 | Plant response rating, Waterhemp ([5]; 16 g ai/ha, scale of 0 to 100): 65 | Plant response rating, Waterhemp ([5]; 31 g ai/ha, scale 0 to 100): 95 | Waterhemp plant response rating [5, 17]: 95 | Plant response rating, Ragweed ([6]; 16 g ai/ha, scale of 0 to 100): 40 | Plant response rating, Ragweed ([6]; 31 g ai/ha, scale 0 to 100): 35 | Ragweed plant response rating ([6]; 62 g ai/ha): 60 | Ragweed plant response rating ([6]; 125 g ai/ha): 55 | Plant response rating, Oilseed Rape ([7]; 16 g ai/ha, scale of 0 to 100): 70 | Plant response rating, Oilseed Rape ([7]; 31 g ai/ha, scale 0 to 100): 95 | Oilseed Rape plant response rating ([7]; 62 g ai/ha): 95 | Oilseed Rape plant response rating ([7]; 125 g ai/ha): 95 | Plant response rating, Kochia (kochia (Kochia scoparia) [8]; 16 g ai/ha, scale of 0 to 100): 80 | Plant response rating, Kochia (kochia (Kochia scoparia) [8]; 31 g ai/ha, scale 0 to 100): 95 | Kochia plant response rating (kochia (Kochia scoparia) [8]; 62 g ai/ha): 95 | Kochia plant response rating (kochia (Kochia scoparia) [8]; 125 g ai/ha): 95 | Plant response rating, Barnyardgrass ([9]; 16 g ai/ha): 10 | Plant response rating, Barnyardgrass ([9]; 31 g ai/ha): 10 | Barnyardgrass plant response rating ([9]; 62 g ai/ha): 10 | Barnyardgrass plant response rating ([9]; 125 g ai/ha): 60 | Plant response rating, Velvetleaf ([10]; 16 g ai/ha, scale of 0 to 100): 35 | Plant response rating, Velvetleaf ([10]; 31 g ai/ha, scale 0 to 100): 45 | Velvetleaf plant response rating [10, 17]: 75 | Ragweed plant response rating ([11]; 31 g ai/ha): 40 | Ragweed plant response rating ([11]; 125 g ai/ha): 40 | Wheat plant response rating ([12]; 31 g ai/ha): 10 | Wheat plant response rating ([12]; 125 g ai/ha): 30 | Pigweed plant response rating ([13]; 31 g ai/ha): 100 | Pigweed plant response rating ([13]; 125 g ai/ha): 100 | Kochia plant response rating (kochia (Kochia scoparia) [14]; 31 g ai/ha): 80 | Kochia plant response rating (kochia (Kochia scoparia) [14]; 125 g ai/ha): 100 | Foxtail, Giant plant response rating [15, 18]: 30 | Foxtail, Giant plant response rating (0 to 100 scale) ([15]; 125 g ai/ha): 100 | Corn plant response rating (corn (Zea mays); [18]): 20 | Corn plant response rating (0 to 100 scale) (corn (Zea mays); 125 g ai/ha): 30 | Ryegrass, Italian plant response rating ([16]; 31 g ai/ha): 40 | Ryegrass, Italian plant response rating ([16]; 125 g ai/ha): 60
